Test results as given in patent US10851372B2, “Exosome packaging of nucleic acids” (University of Ottawa, priority 2015, dated 2020).

How the values were obtained:
[1] = tested on: mouse embryonic fibroblast cells; assay: Exosomal enrichment of synthetic RNA constructs mimicking pre-miR-451 processing stages (RT-qPCR); type: cell-based; conditions: synthetic RNA transfected, FIG. 9(E)
Protocol: Synthetic RNA constructs mimicking WT pre-miR-451 at various processing stages were tested for exosomal enrichment. Constructs were transfected into cells, and exosome enrichment was measured by RT-qPCR after exosome purification by differential centrifugation. miR-451 derived mature siRNA was normalized to levels of let-7a and miR-16 in exosomes vs. cells. Constructs tested include WT pre-mIR-451 construct following Drosha processing (A), an Ago2-cleaved version of the construct (B), and a mature 22 nt miR-451 (post exonuclease activity, having a 5′ targeting portion including a portion of the loop region) (C). For comparison, a standard 21 nt dsRNA siRNA with 3′ overhangs (D) was also tested. Exosomal enrichment results are shown in (E);
Constructs were accordingly designed which mimic WT pre-miR-451 at various processing stages, and tested for exosomal enrichment. Constructs tested are graphically depicted in FIG. 9. […]
RNAs corresponding to 42 nt pre-miR-451 with an inserted GFP siRNA, or the same construct up to the Ago2 cleavage site, or the fully mature form of miR-451 produced GFP siRNA (single-stranded 22 nt RNA), or double-stranded GFP siRNA with 2 nt 3′ overhangs were synthesized by IDT. […] Two days later exosomes were purified and levels of mature GFP siRNA in exosomes was quantified by RT-qPCR.

MDA-MB-231 = assay: Exosomal enrichment of endogenous miRNAs, RT-qPCR in exosomes vs exosome-producing cells; type: cell-based, human
Description: Exosomes from breast epithelial cell line (MDA-MB-231) or mouse embryonic fibroblasts (MEF) were purified and multiple techniques were used to confirm the identity and purity of exosome preparations (see FIG. 1A-D). Dynamic light scattering and Nanosight particle tracking was used to ensure that exosomes purified were highly pure populations of particles with diameter of 100 nm, as expected for exosomes. […] RNA was isolated from these exosomes and the cells that produced them, and RT-qPCR was used to characterize the relative abundance of miRNAs.
(§1) Firstly, enrichment of endogenously expressed miR-451 in exosomes was compared to other endogenously expressed microRNAs (miR-16, let-7a).
(§2) Exosomes were enriched by differential centrifugation as previously described (Thery, 2006, Curr Protoc Cell Biol, Chapter 3, Unit 3 22). Briefly, MEF or MDA-MB-231 cells were cultured in media containing FBS depleted of exosomes by centrifugation at 100 000 g for 16 h (Thery, 2006, Curr Protoc Cell Biol, Chapter 3, Unit 3 22). To purify exosomes supernatant from cell cultures was centrifuged at 400 g (7 min), 2000 g (10 min) and 10 000 g (30 min, SW32 rotor). At each step the supernatant was recovered. After centrifugation at 100 000 g (1 h 10 min, SW32 rotor) the supernatant was removed and the pellet was resuspended. The pellet was washed in PBS by a final centrifugation at 100 000 g (20 min, TLA100.3 rotor). The exosome-enriched pellet was re-suspended in PBS for further analyses.
(§3) RT-qPCR was performed with the MiScript II Reverse Transcriptase system (Qiagen) and GoTaq® qPCR Master Mix (Promega A6002) using primers allowing amplification of the DNA produced in the reverse transcriptase step. Results were normalized to the ubiquitous miRNA let-7a and miR-16.

[2] = tested on: exosomes from multiple cell types and sources; conditions: plasma, serum, mast cells, glioblastoma, B cells, cardiac progenitor cells, MSC; cited from earlier work
MEF = assay: Exosomal enrichment of endogenous miR-451, RT-qPCR in exosomes vs exosome-producing cells; type: cell-based, mouse
Protocol: as §1, §2
RT-qPCR was performed with the MiScript II Reverse Transcriptase system (Qiagen) and GoTaq® qPCR Master Mix (Promega A6002) using primers allowing amplification of the DNA produced in the reverse transcriptase step. […]
RT-qPCR was performed with (Promega A6002) or Quantitect qPCR master mix (Qiagen) using primers allowing amplification of the DNA produced in the reverse transcriptase step using the following primers mir-451: […] […]

MSC Line = assay: as above; type: cell-based; conditions: exosome-depleted or serum-free media
Protocol: as §1, §3
(§4) RT-qPCR was performed with (Promega A6002) or Quantitect qPCR master mix (Qiagen) using primers allowing amplification of the DNA produced in the reverse transcriptase step using the following primers mir-451: […] (SEQ ID NO: 14), let-7a: […] (SEQ ID NO: 15), mir-16: […] (SEQ ID NO: 16).

Primary MSC = assay: as above; type: cell-based, human; conditions: exosome-depleted or serum-free media
Protocol: as §1, §3, §4

ESC = assay: as above; type: cell-based, human
Protocol: as §1, §3, §4

Macrophage = assay: as above; type: cell-based, mouse; conditions: exosome-depleted or serum-free media
Protocol: as §1, §3, §4

MN1 = assay: as above; type: cell-based, mouse; conditions: exosome-depleted or serum-free media
Protocol: as §1, §3, §4

C8D1A = assay: as above; type: cell-based, mouse; conditions: exosome-depleted or serum-free media
Protocol: as §1, §3, §4

C8S = assay: as above; type: cell-based, mouse; conditions: exosome-depleted or serum-free media
Protocol: as §1, §3, §4

C8D30 = assay: as above; type: cell-based, mouse; conditions: exosome-depleted or serum-free media
Protocol: as §1, §3, §4

BV2 = assay: as above; type: cell-based, mouse; conditions: exosome-depleted or serum-free media
Protocol: as §1, §3, §4

N2A = assay: as above; type: cell-based, mouse; conditions: exosome-depleted or serum-free media
Protocol: as §1, §3, §4

NSC34 = assay: as above; type: cell-based, mouse; conditions: exosome-depleted or serum-free media
Protocol: as §1, §3, §4

JAWSII = assay: as above; type: cell-based, mouse; conditions: exosome-depleted or serum-free media
Protocol: as §1, §3, §4

[3] = Effect of drugs on exosome number and miR-451 enrichment in exosomes; type: cell-based; conditions: treatment of exosome-producing cells
Protocol: A variety of cellular factors which may affect nucleic acid construct packaging in exosomes using methods as described herein were studied. Specifically, effects of over-expression of mutant Ras, mutant Myc, wild-type Ago2, and siRNA depletion of Translin were studied. […] The effect of several drugs was also tested, such as mTOR inhibitors and lysosomal/autophagy inhibitors which are clinically used. […] Lysosomal/autophagy inhibitors tested include Bafilomycin A1, concanamycin, and NAADP-AM.

[4] = tested on: Ago2 knockout mouse embryonic fibroblasts; assay: Effect of Ago2 on exosomal enrichment of siRNA from pre-miR-451 structural mimic (qRT-PCR); type: cell-based; conditions: compared to wild-type cells or Ago2 knockout cells rescued with wild-type or catalytically dead Ago2, FIG. 10
Protocol: (§5) In these experiments, plasmids including siRNA sequences targeting GFP or TctR integrated in a pre-miR-451 structural mimic were transfected into cells, and the levels of GFP or TetR siRNA in exosomes vs cells (vs. let-7a and miR-16 in exosomes/cells) was measured by qRT-PCR two to three days later. Enrichment of miR-451 derived sequences in exosomes was normalized to 1 for wild-type exosomes.
Testing of the effect of Ago2 on enrichment of siRNA-containing constructs in exosomes using pre-miR-451 structural mimics as described herein was also performed.
as §5, with “TetR” for “TctR”

MEF cells = assay: Exosomal enrichment of miRNA expressed from transfected pre-miR-451 structural mimic plasmids (RT-qPCR); type: cell-based, mouse; conditions: for Effect of pre-miR-451 backbone on levels of inserted miRNA in cells: MEF cells transfected with plasmids, FIG. 4
Protocol: (§6) (C) The ratio of endogenous miRNAs (let-7a, miR-106, miR-155) was measured in exosomes and exosome-producing cells (MEF, mouse embryonic fibroblasts) by RT-qPCR. y-axis is log 10. miR-451 is not endogenously expressed in these cells.
MEF cells were transfected with pre-miR-451 expressing plasmids (“technology”) containing miR-199, miR-155 or miR-106, and exosomes were purified and RT-qPCR was performed on exosomes and cells.
(§7) Plasmids expressing pre-miR-451, or pre-miR-451 structural mimics including the sequences of other miRNA, were transfected into the two cell types. Expressing miR-106 or miR-155 in the pre-miR-451 structural mimic caused them to be enriched up to 39-fold in exosomes produced by either MEF or breast cancer cells (see FIG. 3B,D). […] In MEF cells, endogenous miR-451 was undetectable in either cells or exosomes (see FIG. 3C).
(§8) Cells were transfected with plasmids using Lipofectamine 2000 according to the manufacturer's instructions. After four hours cells were washed in PBS and incubated with DMEM containing 10% FBS depleted of exosomes by ultracentrifugation according to Thery et al. (2006). After 24 h media was harvested and exosomes were purified by differential ultracentrifugation. RNA was purified from exosomes and exosome-producing cells using Trizol according to the manufacturer's instructions.
as §2, with “The exosome-enriched pellet was re-suspended in PBS for further analyses.” left out

MDA-MB-231 cells = assay: as above; type: cell-based, human; conditions: FIG. 3B
Protocol: as §6, §7, §8
Exosomes were enriched by differential centrifugation as previously described (Thery, 2006, Curr Protoc Cell Biol, Chapter 3, Unit 3 22). […]

AUGAACUUCAGGGUCAGCUUGC (listed as RNA, chemistry not fully specified) [fully mature ss, fully mature form of miR-451 produced GFP siRNA, single-stranded 22 nt RNA]
Exosomal enrichment among constructs mimicking processing stages (normalized to let-7a and miR-16, exosomes vs. cells) [1]: most strongly exosome-enriched construct | Exosomal enrichment compared with standard dsRNA siRNA with 3′ overhangs [1]: higher than dsRNA

miR-451: endogenous miRNA strongly enriched in exosomes; generated from pre-miR-451 by Ago2 cleavage, Dicer-independent (AAACCGUUACCAUUACUGAGUUU; expressed or natural sequence; listed as Homo Sapiens)
Ratio of endogenous miRNA in exosomes and exosome-producing cells (in words) (MDA-MB-231; MDA-MB-231, FIG. 3A): highly enriched in exosomes | Enrichment of miR-451 in exosomes/cell (vs. miR-16 and let-7a) (MDA-MB-231; MDA, exosome-depleted or serum-free media): 5600 | Enrichment of miR-451 in exosomes compared to its levels in cells, compared to other miRNA (MDA-MB-231; endogenous miRNA, MDA-MB-231, FIG. 3A): up to 308 fold | Enrichment of miR-451 in exosomes in several studies [2]: 10-10000 fold | Endogenous miR-451 in cells or exosomes (MEF; MEF cells, FIG. 3C): undetectable | Enrichment of miR-451 in exosomes/cell (vs. miR-16 and let-7a) (MEF; MEF, exosome-depleted or serum-free media): 68800 | Enrichment of miR-451 in exosomes/cell (vs. miR-16 and let-7a) (MSC Line): 5293 | Enrichment of miR-451 in exosomes/cell (vs. miR-16 and let-7a) (Primary MSC): 702 | Enrichment of miR-451 in exosomes/cell (vs. miR-16 and let-7a) (ESC; ESC, exosome-depleted or serum-free media): 3 | Enrichment of miR-451 in exosomes (in words) (ESC; human embryonic stem cells, H9 line, FIG. 7): strongly enriched | Enrichment of miR-451 in exosomes/cell (vs. miR-16 and let-7a) (Macrophage): 1280 | Enrichment of miR-451 in exosomes/cell (vs. miR-16 and let-7a) (MN1): 44 | Enrichment of miR-451 in exosomes/cell (vs. miR-16 and let-7a) (C8D1A): 40 | Enrichment of miR-451 in exosomes/cell (vs. miR-16 and let-7a) (C8S): 383 | Enrichment of miR-451 in exosomes/cell (vs. miR-16 and let-7a) (C8D30): 22 | Enrichment of miR-451 in exosomes/cell (vs. miR-16 and let-7a) (BV2): 1887 | Enrichment of miR-451 in exosomes/cell (vs. miR-16 and let-7a) (N2A): 4119 | Enrichment of miR-451 in exosomes/cell (vs. miR-16 and let-7a) (NSC34): 73 | Enrichment of miR-451 in exosomes/cell (vs. miR-16 and let-7a) (JAWSII): 23642

NAADP-AM
Effect on exosome number [3]: increased exosome number

CO/C1=C\C(C)=C\[C@@H](C)[C@@H](O)[C@@H](C)C/C(C)=C/C=C/[C@H](OC)[C@@H]([C@@H](C)[C@@H](O)[C@H](C)[C@@]2(O)C[C@@H](O)[C@H](C)[C@@H](C(C)C)O2)OC1=O [Bafilomycin A1]
Effect on exosome number [3]: increased exosome number

C/C=C/[C@H]1O[C@@](O)([C@@H](C)[C@H](O)[C@H](C)[C@H]2OC(=O)/C(OC)=C/C(C)=C/[C@@H](C)[C@@H](O)[C@@H](CC)[C@@H](O)[C@H](C)C/C(C)=C/C=C/[C@@H]2OC)C[C@@H](O)[C@@H]1C [concanamycin]
Effect on exosome number [3]: increased exosome number

B1: siRNA targeting TetR inserted in a pre-miR-451 structural mimic: pre-miR-451 structural mimic targeting TetR, SEQ ID NO: 20 (nucleic acid)
chain: CUUGGGAAUGGCAAGGUCUUGAUCUUCCAAUACGCAACCGUAUUGGAAGAUCAAGAUCUUGCUAUACCCAGA
modifications: expressed or natural sequence
Enrichment of siRNA in exosomes in Ago2 knockout cells [4]: still enriched in exosomes

B2: miR-199 in the pre-miR-451 structural mimic: pre-miR-451 structural mimic comprising the miR-199 targeting sequence, plasmid-expressed, SEQ ID NO: 8 (nucleic acid)
chain: CUUGGGAAUGGCAAGGACAGUAGUCUGCACAUUGGUUAAUGUGCAGACUACUGUCUCUUGCUAUACCCAGA
Effect of pre-miR-451 backbone on levels of inserted miRNA in cells (MEF cells): neglible effects

B3: miR-106 in the pre-miR-451 structural mimic: pre-miR-451 structural mimic comprising the miR-106 targeting sequence, plasmid-expressed, SEQ ID NO: 7 (nucleic acid)
chain: CUUGGGAAUGGCAAGGAAAAGUGCUUACAGUGCAGGUAUGCACUGUAAGCACUUUCUCUUGCUAUACCCAGA
Enrichment in exosomes of miRNA inserted in the pre-miR-451 backbone (in words) (MDA-MB-231 cells): comparable with miR-451 | Effect of pre-miR-451 backbone on levels of inserted miRNA in cells (MEF cells): neglible effects | Enrichment in exosomes of miRNA inserted in the pre-miR-451 backbone (in words) (MEF cells; MEF cells, FIG. 3D): highly enriched
